Where two headings read alike, the source gives them in different places.
What was measured:
[1] = system: Fibroblast cells of infant; conditions: 24 hours, none-treated sample = 100
Method: The effect on promoting biosynthesis of collagen was examined in vitro for assaying the effect of the present invention on skin, comparing to 3-amino propane phosphate.
Fibroblast cells of infant were inoculated on 24-wells(10^5 cells/well). They were washed with PBS once. And then, preparation example 1 and 3-aminopropane phosphate as a control were treated by the concentration shown Table 3, and were incubated at CO2 incubator for 24 hours. Each supernatant was collected, and the variation of procollagen was measured by using procollangen type (I) ELISA kit. The value of biosynthesis activity was calculated by comparing to 100, the value of none-treated sample.

mice [2] = conditions: oral, 1 ml/kg of 10% solution in squalene
Method: (§1) If the tocopherol derivatives should be used as cosmetic ingredient, their safety in the living body is very important. […] The product of Preparation Example 1 was dissolved in squalene to produce 10% of solution sample, and the sample was employed in safety experiments.
Acute oral toxicity test in mice: 1 ml/kg of the sample was administrated to total ten (10) mice (male and female were separately five (5) mice).

rabbits [3] = conditions: 0.1 ml of sample diluted with saline to 2%
Method: as §1
1-4. Eye irritation test: The sample was diluted with saline to produce 2% of test sample, and 0.1 ml of the diluted solution was applied to the eye of each of nine (9) rabbits.

phosphodiesterase = conditions: 37° C., 24 hours, 1% aqueous solution of 1:9 mixture with Tween 20, HPLC
Method: The phosphodiesterase was used as biological enzyme, and 1% aqueous solution of 1:9 mixture of preparation example 1 and Tween 20 was prepared to use as an assay sample. After the stirring mixture of the above enzyme, assay sample and medium solution at a temperature of 37° C. for 24 hours, analysis for the hydrolysis ratio of tocopherol derivatives was carried out by using HPLC(MeOH:THF=9:1, R.T.=13.695 min, tocopherol).

Guinea pigs = conditions: 10% solution in squalene
Method: as §1
1-5. Skin sensitization test: Test was carried out for six (6) (three males and three females) Guinea pigs according to Maggnusson and Kligman's procedure.

[4] = Measurement of antioxidant activity using linoleic acid; conditions: 60° C. dark room, when weight no longer changed, NMR spectroscopy
Method: (§2) 2.0 g of pure linoleic acid was poured on a petri-dish, and here 40 mmol of each of tocopherol, preparation example 1 or tocopherol acetate was added. Then, the mixture solution was maintained in a dark room of 60° C. The oxidation ratio of linoleic oil was measured by daily measurement of the change in weight. The less is the changeability in weight of linoleic acid, the stronger is the antioxidant ability, because the increase in weight of linoleic acid is related to the oxidation of linoleic oil.
In the meantime, when the change in weight of linoleic acid was not observed any longer, the oxidation ratio was determined by using NMR spectroscopy.

[5] = 60° C., in cetylethyl-hexanoate, six months, unaided eye
healthy women = conditions: human patch test, healthy women aged 20~28
Method: as §1
1-6. Human patch test: Human patch test was carried out for thirty (30) healthy women aged 20˜28 according to CTFA Guideline(The Cosmetic Toiletry and Fragrance Association, INC., Washington, D.C. 20036, 1991).

subjects = conditions: repeat insult human patch test
Method: as §1
1-7. Repeat Insult Human Patch Test: Human patch test was carried out for subjects according to CTFA Guideline.

rabbits [6] = conditions: same experiment as in mice (percutaneous, 10% solution in squalene)
Method: as §1
(§3) 1-2. Acute dermal toxicity test in mice and rabbits: 0.2 ml/kg of the sample was administrated percutaneously once to a total of ten (10) mice (five male and five female).

mice [7] = conditions: percutaneous once, 0.2 ml/kg of 10% solution in squalene, two weeks of observation
Method: as §1, §3

[8] = 60° C., in cetylethyl-hexanoate; for Residual ration(%): HPLC
Method: Each 3 g of preparation example 1 product and tocopherol was dissolved with 100 ml of cetylethyl-hexanoate. […] Then, residual ratio of each compound was analyzed by using HPLC. Here, phenyl column, eluate solution of 70% aqueous THF solution including 10 mM SDS and 50 mM H3PO4, flow rate of 1 ml/min and detection of 286 nm was used as HPLC analysis condition of preparation example 1. And ODS column, MeOH as eluate solution, flow rate of 1 ml/min and detection of 290 nm was used as HPLC analysis condition of tocopherol for control.

[9] = Measurement of antioxidant activity using Lard oil; conditions: 60° C. dark room, when weight no longer changed, NMR spectroscopy
Method: as §2, with “Lard oil” for “pure linoleic acid”, “on” for “on a”, “Lard” for “linoleic”, “determined” for “measured”, “Lard oil,” for “linoleic acid,”, “Lard oil” for “linoleic acid”
In the meantime, when the change in weight of Lard oil was not observed any longer, the oxidation ratio was determined by using NMR spectroscopy.

rabbits [10] = conditions: 0.1 ml of 10% solution in squalene on depilated back site
Method: as §1
1-3. Primary skin irritation test: 0.1 ml of test sample was applied to back site (2.5 cm×2.5 cm) of each of 12 rabbits depilated 24 hours before.

Compound	oxidation ratio of linoleic acid [4]	coloration degree [5]	Residual ration(%) ([8]; Month 1)	Residual ration(%) ([8]; Month 2)	Residual ration(%) ([8]; Month 3)	Residual ration(%) ([8]; Month 4)	Residual ration(%) ([8]; Month 5)	Residual ration(%) ([8]; Month 6)	Residual ration(%) ([8]; Month head blank)	oxidation ratio of Lard oil [9]	further results
NCCCOP(=O)(O)O [3-aminopropane phosphate, reference compound]											Biosynthesis activity (%) ([1]; concentration 10^−4 %): 146%
Cc1c(C)c2c(c(C)c1OP(=O)(O)OCCCN)CCC(C)(CCCC(C)CCCC(C)CCCC(C)C)O2 (stereo not drawn) [Preparation Example 1, 3-aminopropyl-α-tocopherol phosphate]	about 3%	did not change in color	100	100	100	100	100	100	100	about 5%	death of mice (mice [2]): no death of mice was observed; difference in the body weight after administration (mice [2]): insignificant; eye irritation (rabbits [3]): no eye irritation on cornea, iris and conjunctiva was observed; Biosynthesis activity (%) ([1]; concentration 10^−6 %): 141%; hydrolysis ratio (phosphodiesterase): 40%; skin abnormality (sensitization) (Guinea pigs): no skin abnormality such as erythema, edema or freckles was observed; primary irritation response (healthy women): primary irritation response was not observed; repeat irritation / sensitive irritation (subjects): no repeat irritation or no sensitive irritation was observed; abnormal symptom and change of body weight (rabbits [6]): No abnormal symptom and change of body weight were observed; abnormal symptoms or changes in body weight (mice [7]): no mice administered with the sample exhibited abnormal symptoms or changes in body weight; stability by quantitative analysis (NMR Spectroscopy), compared with tocopherol [8]: more stable; skin irritation (rabbits [10]): no skin irritation was observed
CC(=O)Oc1c(C)c(C)c2c(c1C)CCC(C)(CCC[C@H](C)CCC[C@H](C)CCCC(C)C)O2 (some centres unmarked) [tocopherol acetate]	about 83%									about 90%	
tocopherol [reference compound]	about 83%	increase in coloration at four (4) months or more	100	97	92	88	82	76	100	about 90%	
